Reference: ChEMBL document CHEMBL2040827, “Quinolizidinone carboxylic acids as CNS penetrant, selective m1 allosteric muscarinic receptor modulators” (ACS Med Chem Lett, 2010)
Calls of active or inactive are those of the source. The rule behind the calls is not given here.

Legend:
[1] = target: T1, Muscarinic acetylcholine receptor M1 (Homo sapiens) (UniProt P11229); assay: Positive allosteric modulation of human muscarinic M1 receptor expressed in CHO-NFAT cells assessed as potentiation of acetylcholine-induced calcium flux after 1 hr by FLIPR assay; assay type: functional, cell-based
T1 sequence (whole entry): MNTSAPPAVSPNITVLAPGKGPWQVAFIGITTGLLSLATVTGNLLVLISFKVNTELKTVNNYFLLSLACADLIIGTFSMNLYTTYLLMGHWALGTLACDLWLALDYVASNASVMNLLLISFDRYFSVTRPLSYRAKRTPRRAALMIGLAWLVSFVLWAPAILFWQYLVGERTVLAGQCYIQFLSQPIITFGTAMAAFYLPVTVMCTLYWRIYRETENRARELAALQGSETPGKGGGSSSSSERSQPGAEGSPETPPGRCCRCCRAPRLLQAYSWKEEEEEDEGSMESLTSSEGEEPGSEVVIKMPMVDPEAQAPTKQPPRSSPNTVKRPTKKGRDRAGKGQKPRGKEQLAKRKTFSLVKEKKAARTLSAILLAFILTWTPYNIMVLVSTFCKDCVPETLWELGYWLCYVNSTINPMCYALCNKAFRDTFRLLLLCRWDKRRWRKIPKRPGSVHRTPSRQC

[2] = target: T1, Muscarinic acetylcholine receptor M1 (Homo sapiens); assay: Positive allosteric modulation of human muscarinic M1 receptor expressed in CHO-NFAT cells assessed as potentiation of acetylcholine-induced calcium flux after 1 hr by FLIPR assay relative to control; assay type: functional, cell-based; design: concentration or dose not given beside the values
[3] = (§1) Protein binding in rat plasma; assay type: ADME, cell-free; settings: read-out: PPB (converted)
[4] = (§2) Protein binding in human plasma; assay type: ADME, cell-free; settings: read-out: PPB (converted)
[5] = test system: P-glycoprotein; assay: Passive permeability of the compound assessed as P-glycoprotein-mediated drug transport; assay type: ADME; settings: not told
[6] = test system: Plasma; assay: Plasma concentration in Sprague-Dawley rat at 10 mg/kg, po; assay type: ADME, organism-based; design: dose 10 mg/kg, route oral; settings: in vivo
[7] = test system: Brain; assay: Drug uptake in Sprague-Dawley rat brain at 10 mg/kg, po; assay type: ADME, organism-based; design: dose 10 mg/kg, route oral; settings: in vivo, read-out: Drug uptake
[8] = Ratio of drug level in brain to plasma in Sprague-Dawley rat at 10 mg/kg, po; assay type: ADME, organism-based; design: dose 10 mg/kg, route oral; settings: read-out: BPR
[9] = test system: Cerebrospinal fluid; assay: Drug uptake in Sprague-Dawley rat cerebrospinal fluid at 10 mg/kg, po; assay type: ADME, organism-based; design: dose 10 mg/kg, route oral; settings: in vivo, read-out: Drug uptake
[10] = Ratio of drug uptake in Sprague-Dawley rat cerebrospinal fluid at 10 mg/kg, po to protein binding in rat plasma; assay type: ADME, organism-based, CSF/Plasma; design: dose 10 mg/kg, route oral; settings: in vivo
[11] = target: MDR1 (P-glycoprotein, ABCB1) (Homo sapiens, UniProt P08183); assay: Efflux ratio of the compound assessed as ratio of human MDR1-mediated permeability from basolateral to apical over apical to basolateral side of drug transport; assay type: ADME; settings: not told
MDR1 (P-glycoprotein, ABCB1), sequence (P08183 whole entry): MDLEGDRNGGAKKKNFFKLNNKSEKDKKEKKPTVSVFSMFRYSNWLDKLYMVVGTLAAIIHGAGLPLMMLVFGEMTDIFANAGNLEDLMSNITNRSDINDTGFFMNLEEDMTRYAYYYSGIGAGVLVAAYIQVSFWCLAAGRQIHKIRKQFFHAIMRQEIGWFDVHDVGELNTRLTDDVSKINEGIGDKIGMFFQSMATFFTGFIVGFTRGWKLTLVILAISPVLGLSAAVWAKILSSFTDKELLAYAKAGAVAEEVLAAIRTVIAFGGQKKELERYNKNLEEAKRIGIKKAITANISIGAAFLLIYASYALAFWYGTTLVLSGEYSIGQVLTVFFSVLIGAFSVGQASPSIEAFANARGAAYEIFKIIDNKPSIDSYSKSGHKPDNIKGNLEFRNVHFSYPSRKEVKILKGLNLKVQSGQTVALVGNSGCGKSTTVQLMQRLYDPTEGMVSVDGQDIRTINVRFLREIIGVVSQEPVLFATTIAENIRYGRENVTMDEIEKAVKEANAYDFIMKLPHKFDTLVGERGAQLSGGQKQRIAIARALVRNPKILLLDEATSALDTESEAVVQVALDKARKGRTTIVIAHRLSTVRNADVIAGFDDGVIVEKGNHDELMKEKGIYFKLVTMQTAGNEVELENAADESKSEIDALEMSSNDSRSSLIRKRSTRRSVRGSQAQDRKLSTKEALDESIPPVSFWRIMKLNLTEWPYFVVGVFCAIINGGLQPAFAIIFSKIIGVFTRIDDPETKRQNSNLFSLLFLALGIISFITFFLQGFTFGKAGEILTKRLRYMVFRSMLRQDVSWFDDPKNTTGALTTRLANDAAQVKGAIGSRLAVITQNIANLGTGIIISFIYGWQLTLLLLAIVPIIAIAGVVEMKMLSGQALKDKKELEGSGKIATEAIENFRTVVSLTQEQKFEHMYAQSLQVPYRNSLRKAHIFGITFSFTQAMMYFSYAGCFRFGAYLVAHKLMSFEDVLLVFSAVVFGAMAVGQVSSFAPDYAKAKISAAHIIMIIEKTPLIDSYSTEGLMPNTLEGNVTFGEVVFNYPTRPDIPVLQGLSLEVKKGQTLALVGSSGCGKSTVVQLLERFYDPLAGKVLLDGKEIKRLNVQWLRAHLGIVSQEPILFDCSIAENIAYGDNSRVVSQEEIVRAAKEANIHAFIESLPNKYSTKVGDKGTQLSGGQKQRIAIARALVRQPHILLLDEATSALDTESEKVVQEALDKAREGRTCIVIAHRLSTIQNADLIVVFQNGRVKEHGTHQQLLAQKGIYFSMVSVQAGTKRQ

[12] = target: MDR1a (multidrug resistance protein 1a) (Rattus norvegicus, UniProt Q6PSM0); assay: Efflux ratio of the compound assessed as ratio of rat MDR1a-mediated permeability from basolateral to apical over apical to basolateral side of drug transport; assay type: ADME; settings: not told
MDR1a (multidrug resistance protein 1a), sequence (Q6PSM0 whole entry): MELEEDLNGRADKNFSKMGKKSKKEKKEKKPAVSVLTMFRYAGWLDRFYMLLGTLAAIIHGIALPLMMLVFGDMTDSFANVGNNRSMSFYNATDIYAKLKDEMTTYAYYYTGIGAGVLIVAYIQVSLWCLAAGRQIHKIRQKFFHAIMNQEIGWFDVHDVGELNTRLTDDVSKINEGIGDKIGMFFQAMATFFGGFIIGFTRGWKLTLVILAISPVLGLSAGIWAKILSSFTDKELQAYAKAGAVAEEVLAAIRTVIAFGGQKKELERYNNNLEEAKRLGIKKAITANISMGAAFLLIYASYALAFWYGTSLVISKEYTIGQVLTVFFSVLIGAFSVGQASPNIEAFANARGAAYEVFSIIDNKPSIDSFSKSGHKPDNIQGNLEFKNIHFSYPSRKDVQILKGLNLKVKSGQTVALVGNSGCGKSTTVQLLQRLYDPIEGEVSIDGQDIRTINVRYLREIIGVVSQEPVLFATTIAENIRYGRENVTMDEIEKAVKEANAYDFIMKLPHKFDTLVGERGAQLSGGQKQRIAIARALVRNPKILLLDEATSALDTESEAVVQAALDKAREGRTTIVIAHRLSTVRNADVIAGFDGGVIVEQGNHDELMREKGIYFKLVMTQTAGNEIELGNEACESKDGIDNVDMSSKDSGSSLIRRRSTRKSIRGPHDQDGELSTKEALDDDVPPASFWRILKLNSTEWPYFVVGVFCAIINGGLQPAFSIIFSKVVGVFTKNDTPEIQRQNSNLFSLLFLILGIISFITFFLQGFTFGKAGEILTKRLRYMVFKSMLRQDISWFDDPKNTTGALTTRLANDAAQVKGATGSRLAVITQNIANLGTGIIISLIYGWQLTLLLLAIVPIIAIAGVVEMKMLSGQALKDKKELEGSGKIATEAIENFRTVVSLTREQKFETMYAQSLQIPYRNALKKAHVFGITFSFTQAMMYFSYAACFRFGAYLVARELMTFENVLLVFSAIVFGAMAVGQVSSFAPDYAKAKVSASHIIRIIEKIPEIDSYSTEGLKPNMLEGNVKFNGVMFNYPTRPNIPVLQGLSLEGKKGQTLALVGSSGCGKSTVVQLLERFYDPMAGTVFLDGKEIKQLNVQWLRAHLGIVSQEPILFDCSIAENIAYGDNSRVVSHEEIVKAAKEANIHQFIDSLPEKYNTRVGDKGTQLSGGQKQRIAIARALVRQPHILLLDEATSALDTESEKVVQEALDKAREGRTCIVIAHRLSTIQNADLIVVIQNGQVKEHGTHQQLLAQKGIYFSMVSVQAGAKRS

[13] = target: Voltage-gated inwardly rectifying potassium channel KCNH2 (Homo sapiens, UniProt Q12809); assay: Inhibition of human ERG
Voltage-gated inwardly rectifying potassium channel KCNH2, sequence (Q12809 whole entry): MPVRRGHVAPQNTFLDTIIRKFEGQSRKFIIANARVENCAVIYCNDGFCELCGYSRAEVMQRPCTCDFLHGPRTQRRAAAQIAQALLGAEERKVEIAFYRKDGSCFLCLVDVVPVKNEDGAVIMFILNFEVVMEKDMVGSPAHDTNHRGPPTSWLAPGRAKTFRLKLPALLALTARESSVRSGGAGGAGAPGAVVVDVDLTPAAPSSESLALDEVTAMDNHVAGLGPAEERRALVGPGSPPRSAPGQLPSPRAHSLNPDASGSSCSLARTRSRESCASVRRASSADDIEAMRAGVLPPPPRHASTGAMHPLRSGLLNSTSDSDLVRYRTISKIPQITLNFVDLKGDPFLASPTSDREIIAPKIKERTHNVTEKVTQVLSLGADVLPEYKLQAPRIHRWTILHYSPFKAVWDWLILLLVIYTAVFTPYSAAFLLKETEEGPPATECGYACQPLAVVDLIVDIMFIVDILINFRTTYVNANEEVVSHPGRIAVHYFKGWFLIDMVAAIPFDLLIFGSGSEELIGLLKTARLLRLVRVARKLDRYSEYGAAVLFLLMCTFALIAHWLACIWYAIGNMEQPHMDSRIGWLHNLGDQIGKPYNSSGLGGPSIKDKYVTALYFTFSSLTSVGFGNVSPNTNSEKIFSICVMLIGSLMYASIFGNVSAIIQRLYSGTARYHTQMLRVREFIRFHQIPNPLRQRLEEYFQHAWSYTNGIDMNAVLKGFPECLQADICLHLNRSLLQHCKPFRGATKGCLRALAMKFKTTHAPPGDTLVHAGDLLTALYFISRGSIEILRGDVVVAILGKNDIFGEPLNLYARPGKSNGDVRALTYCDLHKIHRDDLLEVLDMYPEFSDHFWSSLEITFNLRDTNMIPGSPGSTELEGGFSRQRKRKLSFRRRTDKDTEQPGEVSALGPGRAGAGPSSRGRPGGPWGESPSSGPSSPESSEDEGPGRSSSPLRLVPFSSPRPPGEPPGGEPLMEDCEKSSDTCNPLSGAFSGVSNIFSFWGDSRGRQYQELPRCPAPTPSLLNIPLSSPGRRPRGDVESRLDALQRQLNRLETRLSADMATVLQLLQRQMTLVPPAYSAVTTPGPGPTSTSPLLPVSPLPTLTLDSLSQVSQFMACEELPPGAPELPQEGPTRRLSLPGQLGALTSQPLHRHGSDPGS

[14] = target: T1, Muscarinic acetylcholine receptor M1 (Homo sapiens); assay: Agonist activity at human muscarinic M1 receptor expressed in CHO-NFAT cells assessed as effect on calcium flux up to 10 uM after 1 hr by FLIPR assay; assay type: functional, cell-based
[15] = target: T2, Muscarinic acetylcholine receptor M2 (Homo sapiens) (UniProt P08172); assay: Agonist activity at human muscarinic M2 receptor expressed in CHO-NFAT cells assessed as potentiation of acetylcholine-induced calcium flux at up to 100 uM after 1 hr by FLIPR assay; assay type: functional, cell-based
T2 sequence (whole entry): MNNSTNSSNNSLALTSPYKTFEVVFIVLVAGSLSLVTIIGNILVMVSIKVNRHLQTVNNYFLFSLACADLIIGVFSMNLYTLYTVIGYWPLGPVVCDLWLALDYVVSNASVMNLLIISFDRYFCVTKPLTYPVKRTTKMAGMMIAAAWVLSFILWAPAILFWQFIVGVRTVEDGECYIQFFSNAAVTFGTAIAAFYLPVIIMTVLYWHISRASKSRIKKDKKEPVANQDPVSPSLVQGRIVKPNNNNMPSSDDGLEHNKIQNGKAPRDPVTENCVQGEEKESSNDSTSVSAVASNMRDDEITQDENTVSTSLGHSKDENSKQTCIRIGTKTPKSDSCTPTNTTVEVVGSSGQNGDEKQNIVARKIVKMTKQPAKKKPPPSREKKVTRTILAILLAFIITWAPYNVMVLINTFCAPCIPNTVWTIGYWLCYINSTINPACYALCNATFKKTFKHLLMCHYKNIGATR

[16] = target: Muscarinic acetylcholine receptor M3 (Homo sapiens) (UniProt P20309); assay: Agonist activity at human muscarinic M3 receptor expressed in CHO-NFAT cells assessed as potentiation of acetylcholine-induced calcium flux at up to 100 uM after 1 hr by FLIPR assay; assay type: functional, cell-based
Muscarinic acetylcholine receptor M3 (Homo sapiens), sequence (P20309 whole entry, looked up): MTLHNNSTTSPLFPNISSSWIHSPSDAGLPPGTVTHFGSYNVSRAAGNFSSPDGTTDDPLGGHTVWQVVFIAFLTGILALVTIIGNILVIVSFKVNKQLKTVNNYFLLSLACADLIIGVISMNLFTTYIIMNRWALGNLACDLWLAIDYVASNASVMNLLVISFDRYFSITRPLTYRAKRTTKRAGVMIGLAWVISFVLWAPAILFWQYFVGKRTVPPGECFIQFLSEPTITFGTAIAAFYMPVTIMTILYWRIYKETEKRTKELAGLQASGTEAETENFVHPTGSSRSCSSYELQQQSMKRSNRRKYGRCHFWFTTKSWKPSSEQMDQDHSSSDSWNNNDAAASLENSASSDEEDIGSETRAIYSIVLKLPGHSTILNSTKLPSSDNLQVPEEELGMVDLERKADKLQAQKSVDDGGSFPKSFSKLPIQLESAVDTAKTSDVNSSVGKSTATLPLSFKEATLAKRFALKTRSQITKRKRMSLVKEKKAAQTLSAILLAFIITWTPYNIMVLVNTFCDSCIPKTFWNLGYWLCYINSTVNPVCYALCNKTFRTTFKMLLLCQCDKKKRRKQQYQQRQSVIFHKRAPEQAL

[17] = target: T3, Muscarinic acetylcholine receptor M4 (Homo sapiens) (UniProt P08173); assay: Agonist activity at human muscarinic M4 receptor expressed in CHO-NFAT cells assessed as potentiation of acetylcholine-induced calcium flux at up to 100 uM after 1 hr by FLIPR assay; assay type: functional, cell-based
T3 sequence (whole entry): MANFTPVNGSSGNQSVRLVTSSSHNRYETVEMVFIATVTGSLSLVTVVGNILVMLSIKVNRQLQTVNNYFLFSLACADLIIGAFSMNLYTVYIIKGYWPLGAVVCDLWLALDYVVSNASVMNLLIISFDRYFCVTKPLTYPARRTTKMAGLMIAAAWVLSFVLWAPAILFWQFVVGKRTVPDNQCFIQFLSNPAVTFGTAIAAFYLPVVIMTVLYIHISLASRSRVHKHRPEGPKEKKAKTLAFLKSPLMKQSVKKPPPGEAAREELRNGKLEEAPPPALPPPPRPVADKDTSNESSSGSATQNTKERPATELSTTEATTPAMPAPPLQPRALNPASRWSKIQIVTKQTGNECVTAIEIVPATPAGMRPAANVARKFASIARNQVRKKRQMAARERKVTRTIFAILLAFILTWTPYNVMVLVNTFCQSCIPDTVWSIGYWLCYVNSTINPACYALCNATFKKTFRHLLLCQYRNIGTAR

[18] = target: T2, Muscarinic acetylcholine receptor M2 (Homo sapiens); assay: Antagonist activity at human muscarinic M2 receptor expressed in CHO-NFAT cells assessed as inhibition of acetylcholine-induced calcium flux at up to 100 uM after 1 hr by FLIPR assay; assay type: functional, cell-based
[19] = target: Muscarinic acetylcholine receptor M3 (Homo sapiens) (UniProt P20309); assay: Antagonist activity at human muscarinic M3 receptor expressed in CHO-NFAT cells assessed as inhibition of acetylcholine-induced calcium flux at up to 100 uM after 1 hr by FLIPR assay; assay type: functional, cell-based
[20] = target: T3, Muscarinic acetylcholine receptor M4 (Homo sapiens); assay: Antagonist activity at human muscarinic M4 receptor expressed in CHO-NFAT cells assessed as inhibition of acetylcholine-induced calcium flux at up to 100 uM after 1 hr by FLIPR assay; assay type: functional, cell-based
[21] = test system: Mus musculus; assay: Inhibition of scopolamine-induced memory deficit in ip dosed contextual fear conditioning memory model of mouse by measuring freezing behavior after 24 hrs […] relative to control; assay type: functional, organism-based
[22] = test system: Mus musculus; assay: Inhibition of scopolamine-induced memory deficit in contextual fear conditioning memory model of mouse by measuring freezing behavior at 30 mg/kg, ip at 7.4 uM of plasma concentration after 24 hrs […] relative to control; assay type: functional, organism-based; design: dose 30 mg/kg
[23] = test system: Mus musculus; assay: Inhibition of scopolamine-induced memory deficit in ip dosed contextual fear conditioning memory model of mouse by measuring freezing behavior at 33 uM of plasma concentration after 24 hrs […] relative to control; assay type: functional, organism-based
[24] = Oral bioavailability in Sprague-Dawley rat at 10 mg/kg; assay type: ADME, organism-based; settings: in vivo
[25] = Half life in Sprague-Dawley rat at 10 mg/kg, po and 2 mg/kg, iv; assay type: ADME, organism-based; settings: in vivo
[26] = Clearance in Sprague-Dawley rat at 10 mg/kg, po and 2 mg/kg, iv; assay type: ADME, organism-based; settings: in vivo
[27] = Oral bioavailability in dog at 10 mg/kg; assay type: ADME, organism-based, Canis lupus familiaris; settings: in vivo
[28] = Half life in dog at 10 mg/kg, po and 2 mg/kg, iv; assay type: ADME, organism-based, Canis lupus familiaris; settings: in vivo
[29] = Clearance in dog at 10 mg/kg, po and 2 mg/kg, iv; assay type: ADME, organism-based, Canis lupus familiaris; settings: in vivo
[30] = test system: Plasma; assay: as §1; assay type: ADME, cell-free
[31] = test system: Plasma; assay: as §2; assay type: ADME, cell-free
[32] = Fraction unbound in rat plasma; assay type: ADME, cell-free
[33] = Fraction unbound in human plasma; assay type: ADME, cell-free

O=C(O)c1cc(C(O)c2ccccc2)c2ccccn2c1=O (stereo unspecified)
Activity [1]: > 100 µM

O=C(O)c1cc(Cc2ccc(-c3cccnc3)cc2)c2ccccn2c1=O
Activity [1]: 0.075 µM | Activity [2]: 74% | fraction unbound [3]: 0.015 | fraction unbound [4]: 0.003

O=C(O)c1cc(CN2CCN(c3ccncc3)CC2)c2ccccn2c1=O
Activity [1]: 1.5 µM | Activity [2]: 86% | Papp [5]: < 5 ×10⁻⁶ cm/s | concentration [6]: 2070 nM | concentration [7]: 59 nM | Kp [8]: 0.03 | concentration [9]: 16 nM | Ratio [10]: 0.02

N#Cc1ccc(N2CCN(Cc3cc(C(=O)O)c(=O)n4ccccc34)CC2)cc1
Activity [1]: 0.52 µM | Activity [2]: 94% | fraction unbound [3]: 0.062 | fraction unbound [4]: 0.134 | Papp [5]: 22 ×10⁻⁶ cm/s | efflux ratio [11]: 0.7 | efflux ratio [12]: 1.9 | concentration [6]: 1500 nM | concentration [7]: 248 nM | Kp [8]: 0.17 | concentration [9]: 85 nM | Ratio [10]: 0.42 | IC50 [13]: 7.4 µM | Activity [14]: inactive | Activity [15]: inactive | Activity [16]: inactive | Activity [17]: inactive | inhibition [18]: inactive | inhibition [19]: inactive | inhibition [20]: inactive | inhibition [21]: Dose-dependent effect | inhibition [22]: Active | inhibition [23]: Active | bioavailability [24]: 23% | half-life [25]: 6.4 h | clearance [26]: 10.8 mL/min/kg | bioavailability [27]: 33% | half-life [28]: 2.5 h | clearance [29]: 13 mL/min/kg

O=C(O)c1cc(Cc2ccc(-c3ccccc3)cc2)c2ccccn2c1=O
Activity [1]: 0.11 µM | Activity [2]: 86% | PPB [30]: ND(Insoluble) | PPB [31]: ND(Insoluble)

O=C(O)c1cc(CN2CCN(c3ccccc3)CC2)c2ccccn2c1=O
Activity [1]: 0.93 µM | Activity [2]: 52% | fraction unbound [3]: 0.369 | fraction unbound [4]: 0.26 | fraction unbound [32]: > 0.25 | fraction unbound [33]: > 0.25

O=C(O)c1cc(CN2CCN(c3ccccc3)C(=O)C2)c2ccccn2c1=O
Activity [1]: 1.1 µM | Activity [2]: 89% | fraction unbound [3]: 0.62 | fraction unbound [4]: 0.479

O=C(O)c1cc(Cc2ccc(Cl)cc2)c2ccccn2c1=O
Activity [1]: 0.2 µM | Activity [2]: 93%

O=C(O)c1cc(Cc2ccccc2)c2ccccn2c1=O
Activity [1]: 0.92 µM | Activity [2]: 81%

O=C(O)c1cc(CN2CCN(c3ccc(Br)cc3)CC2)c2ccccn2c1=O
Activity [1]: 0.13 µM | Activity [2]: 77% | fraction unbound [3]: 0.039 | fraction unbound [4]: 0.065 | fraction unbound [32]: 0.04 | Papp [5]: 16 ×10⁻⁶ cm/s | efflux ratio [11]: 0.1 | efflux ratio [12]: 0.6 | concentration [6]: 3650 nM | concentration [7]: 4580 nM | Kp [8]: 1.3 | concentration [9]: 70 nM | Ratio [10]: 0.32 | IC50 [13]: 2.1 µM

O=C(O)c1cc(CN2CCN(c3ccc(C(F)(F)F)cc3)CC2)c2ccccn2c1=O
Activity [1]: 0.27 µM | Activity [2]: 67% | fraction unbound [3]: 0.034 | fraction unbound [4]: 0.049 | Papp [5]: 32 ×10⁻⁶ cm/s | efflux ratio [11]: 1.4 | efflux ratio [12]: 1.3 | concentration [6]: 1140 nM | concentration [7]: 3080 nM | Kp [8]: 2.7 | concentration [9]: 14 nM | Ratio [10]: 0.25 | IC50 [13]: 0.1 µM

COc1ccc(Cn2cc(C(=O)O)c(=O)c3ccccc32)cc1
inhibition [23]: inactive

O=C(O)c1cc(CN2CCCCC2)c2ccccn2c1=O
Activity [1]: 7.6 µM | Activity [2]: 87%

O=C(O)c1cc(CN2CCC(c3ccccc3)C2)c2ccccn2c1=O (stereo unspecified)
Activity [1]: > 100 µM

O=C(O)c1cc(Cc2ccc(-c3ccccn3)cc2)c2ccccn2c1=O
Activity [1]: 0.061 µM | Activity [2]: 78%

O=C(O)c1cc(CN2CCC(c3ccccc3)CC2)c2ccccn2c1=O
Activity [1]: 1.3 µM | Activity [2]: 58%

O=C(O)c1cc(C(=O)c2ccccc2)c2ccccn2c1=O
Activity [1]: > 100 µM
